For 32 molecules, pest or weed control results are on record in patent publication US20220151236A1, “NOVEL OXADIAZOLE COMPOUNDS FOR CONTROLLING OR PREVENTING PHYTOPATHOGENIC FUNGI” (PI INDUSTRIES LTD., priority 2019, published 2022).

Structures can show the parent of a compound that is named as a salt.

In this experiment the test system is Phakopsora pachyrhizi. The experiment in a line: Phakopsora pachyrhizi Test on Soybean (preventive activity, greenhouse). The experiment is classed as in vivo. The conditions noted are these: preventive spray on young Soybean plants, inoculated one day after treatment, rated 3, 7, 10 and 15 days after application, read-out: Efficacy (% control), disease severity compared to the untreated check. The method, then:
Compounds were dissolved in 2% dimethyl sulfoxide/acetone and then mixed with water containing an emulsifier to a calibrated spray volume of 50 mL. This 50 mL spray solution was poured into spray bottles for further applications. To test the preventive activity of compounds, healthy young Soybean plants raised in the greenhouse were sprayed with the active compound preparation at the stated application rates inside the spray cabinets using hollow cone nozzles. One day after treatment, the plants were inoculated with a spore suspension containing 2×10^5 Phakopsora pachyrhizi conidia. The inoculated plants were then kept in a greenhouse chamber at 22-24° C. temperature and 80-90% relative humidity for disease expression. A visual assessment of the compound's performance was carried out by rating the disease severity (0-100% scale) on treated plants 3, 7, 10 and 15 days after application. Efficacy (% control) of the compounds was calculated by comparing the disease rating in the treatment with the one of the untreated control. The sprayed plants were also assessed for plant compatibility by recording symptoms like necrosis, chlorosis and stunting.
In the case of `CC(C)(C)CNC(=O)c1cn2ccc(-c3noc(C(F)(F)F)n3)cc2n1` [Compound 36, N-neopentyl-7-(5-(trifluoromethyl)-1,2,4-oxadiazol-3-yl)imidazo[1,2-a]pyridine-2-carboxamide], the pest or weed control at 500 ppm was at least 70%.

`O=C(NCc1ccc(Cl)cc1)c1cn2ccc(-c3noc(C(F)(F)F)n3)cc2n1` [Compound 38, N-(4-chlorobenzyl)-7-(5-(trifluoromethyl)-1,2,4-oxadiazol-3-yl)imidazo[1,2-a]pyridine-2-carboxamide]: the pest or weed control at 500 ppm was at least 70%.

For the molecule `O=C(NCc1cccc(Cl)c1)c1cn2ccc(-c3noc(C(F)(F)F)n3)cc2n1` [Compound 40, N-(3-chlorobenzyl)-7-(5-(trifluoromethyl)-1,2,4-oxadiazol-3-yl)imidazo[1,2-a]pyridine-2-carboxamide], the pest or weed control at 500 ppm was at least 70%.

`COc1cccc(CNC(=O)c2cn3ccc(-c4noc(C(F)(F)F)n4)cc3n2)c1` [Compound 41, N-(3-methoxybenzyl)-7-(5-(trifluoromethyl)-1,2,4-oxadiazol-3-yl)imidazo[1,2-a]pyridine-2-carboxamide]: the pest or weed control at 500 ppm is at least 70%.

Take `O=C(NCc1ccccc1F)c1cn2ccc(-c3noc(C(F)(F)F)n3)cc2n1` [Compound 42, N-(2-fluorobenzyl)-7-(5-(trifluoromethyl)-1,2,4-oxadiazol-3-yl)imidazo[1,2-a]pyridine-2-carboxamide]: the pest or weed control at 500 ppm was at least 70%.

Turning to `CN(C)c1ccc(CNC(=O)c2cn3ccc(-c4noc(C(F)(F)F)n4)cc3n2)cc1` [Compound 43, N-(4-(dimethylamino)benzyl)-7-(5-(trifluoromethyl)-1,2,4-oxadiazol-3-yl)imidazo[1,2-a]pyridine-2-carboxamide], the pest or weed control at 500 ppm was at least 70%.

In the case of `O=C(NCc1ccc(Cl)c(Cl)c1)c1cn2ccc(-c3noc(C(F)(F)F)n3)cc2n1` [Compound 44, N-(3,4-dichlorobenzyl)-7-(5-(trifluoromethyl)-1,2,4-oxadiazol-3-yl)imidazo[1,2-a]pyridine-2-carboxamide], the pest or weed control at 500 ppm was at least 70%.

For `CCOC(=O)c1cn2ccc(-c3noc(C(F)(F)F)n3)cc2n1` [Compound 45, ethyl 7-(5-(trifluoromethyl)-1,2,4-oxadiazol-3-yl)imidazo[1,2-a]pyridine-2-carboxylate hydrobromide], the pest or weed control at 500 ppm was at least 70%.

For the molecule `FC(F)(F)c1nc(-c2ccn3cc(CSc4ccc(Cl)cc4)nc3c2)no1` [Compound 47, 3-(2-(((4-chlorophenyl)thio)methyl)imidazo[1,2-a]pyridin-7-yl)-5-(trifluoromethyl)-1,2,4-oxadiazole], the pest or weed control at 500 ppm was at least 70%.

For `Fc1ccc(SCc2cn3ccc(-c4noc(C(F)(F)F)n4)cc3n2)cc1` [Compound 48, 3-(2-(((4-fluorophenyl)thio)methyl)imidazo[1,2-a]pyridin-7-yl)-5-(trifluoromethyl)-1,2,4-oxadiazole], the pest or weed control at 500 ppm was at least 70%.

For `O=S(=O)(Cc1cn2ccc(-c3noc(C(F)(F)F)n3)cc2n1)c1ccc(F)cc1` [Compound 57, 3-(2-(((4-fluorophenyl)sulfonyl)methyl)imidazo[1,2-a]pyridin-7-yl)-5-(trifluoromethyl)-1,2,4-oxadiazole], the pest or weed control at 500 ppm was at least 70%.

For the molecule `O=S(=O)(Cc1cn2ccc(-c3noc(C(F)(F)F)n3)cc2n1)c1ccccc1` [Compound 58, 3-(2-((phenylsulfonyl)methyl)imidazo[1,2-a]pyridin-7-yl)-5-(trifluoromethyl)-1,2,4-oxadiazole], the pest or weed control at 500 ppm is at least 70%.

For the molecule `O=S(=O)(Cc1cn2ccc(-c3noc(C(F)(F)F)n3)cc2n1)c1ccccc1F` [Compound 59, 3-(2-(((2-fluorophenyl)sulfonyl)methyl)imidazo[1,2-a]pyridin-7-yl)-5-(trifluoromethyl)-1,2,4-oxadiazole], the pest or weed control at 500 ppm was at least 70%.

Turning to `O=C(NCc1ccc(C(F)(F)F)cc1)c1cn2cc(-c3noc(C(F)(F)F)n3)ccc2n1` [Compound 63, 6-(5-(trifluoromethyl)-1,2,4-oxadiazol-3-yl)-N-(4-(trifluoromethyl)benzyl)imidazo[1,2-a]pyridine-2-carboxamide], the pest or weed control at 500 ppm was at least 70%.

Consider `O=C(c1cn2cc(-c3noc(C(F)(F)F)n3)ccc2n1)N1CCOCC1` [Compound 64, morpholino(6-(5-(trifluoromethyl)-1,2,4-oxadiazol-3-yl)imidazo[1,2-a]pyridin-2-yl)methanone], for which the pest or weed control at 500 ppm is at least 70%.

As for `CC(C)CNC(=O)c1cn2cc(-c3noc(C(F)(F)F)n3)ccc2n1` [Compound 66, N-isobutyl-6-(5-(trifluoromethyl)-1,2,4-oxadiazol-3-yl)imidazo[1,2-a]pyridine-2-carboxamide], the pest or weed control at 500 ppm is at least 70%.

As to `O=C(NC1CCCC1)c1cn2cc(-c3noc(C(F)(F)F)n3)ccc2n1` [Compound 67, N-cyclopentyl-6-(5-(trifluoromethyl)-1,2,4-oxadiazol-3-yl)imidazo[1,2-a]pyridine-2-carboxamide], the pest or weed control at 500 ppm is at least 70%.

Take `COC1CCN(C(=O)c2cn3cc(-c4noc(C(F)(F)F)n4)ccc3n2)C1` (centres unmarked) [Compound 68, (3-methoxypyrrolidin-1-yl)(6-(5-(trifluoromethyl)-1,2,4-oxadiazol-3-yl)imidazo[1,2-a]pyridin-2-yl)methanone]: the pest or weed control at 500 ppm was at least 70%.

Take `O=C(NCC1CC1)c1cn2cc(-c3noc(C(F)(F)F)n3)ccc2n1` [Compound 70, N-(cyclopropylmethyl)-6-(5-(trifluoromethyl)-1,2,4-oxadiazol-3-yl)imidazo[1,2-a]pyridine-2-carboxamide]: the pest or weed control at 500 ppm is at least 70%.

`CN(Cc1ccccc1)C(=O)c1cn2cc(-c3noc(C(F)(F)F)n3)ccc2n1` [Compound 71, N-benzyl-N-methyl-6-(5-(trifluoromethyl)-1,2,4-oxadiazol-3-yl)imidazo[1,2-a]pyridine-2-carboxamide]: the pest or weed control at 500 ppm was at least 70%.

For the molecule `CC(NC(=O)c1cn2cc(-c3noc(C(F)(F)F)n3)ccc2n1)c1ccccc1` (centres unmarked) [Compound 72, N-(1-phenylethyl)-6-(5-(trifluoromethyl)-1,2,4-oxadiazol-3-yl)imidazo[1,2-a]pyridine-2-carboxamide], the pest or weed control at 500 ppm is at least 70%.

Take `N#CC1(NC(=O)c2cn3cc(-c4noc(C(F)(F)F)n4)ccc3n2)CC1` [Compound 73, N-(1-cyanocyclopropyl)-6-(5-(trifluoromethyl)-1,2,4-oxadiazol-3-yl)imidazo[1,2-a]pyridine-2-carboxamide]: the pest or weed control at 500 ppm is at least 70%.

Take `O=C(NCc1cccc(Cl)c1)c1cn2cc(-c3noc(C(F)(F)F)n3)ccc2n1` [Compound 75, N-(3-chlorobenzyl)-6-(5-(trifluoromethyl)-1,2,4-oxadiazol-3-yl)imidazo[1,2-a]pyridine-2-carboxamide]: the pest or weed control at 500 ppm is at least 70%.

In the case of `COc1cccc(CNC(=O)c2cn3cc(-c4noc(C(F)(F)F)n4)ccc3n2)c1` [Compound 76, N-(3-methoxybenzyl)-6-(5-(trifluoromethyl)-1,2,4-oxadiazol-3-yl)imidazo[1,2-a]pyridine-2-carboxamide], the pest or weed control at 500 ppm was at least 70%.

As for `O=C(NCc1ccc(Cl)cc1)c1cn2cc(-c3noc(C(F)(F)F)n3)ccc2n1` [Compound 77, N-(4-chlorobenzyl)-6-(5-(trifluoromethyl)-1,2,4-oxadiazol-3-yl)imidazo[1,2-a]pyridine-2-carboxamide], the pest or weed control at 500 ppm was at least 70%.

Consider `CC(C)CN(C)C(=O)c1cn2cc(-c3noc(C(F)(F)F)n3)ccc2n1` [Compound 78, N-isobutyl-N-methyl-6-(5-(trifluoromethyl)-1,2,4-oxadiazol-3-yl)imidazo[1,2-a]pyridine-2-carboxamide], for which the pest or weed control at 500 ppm is at least 70%.

As to `CCOC(=O)c1cn2cc(-c3noc(C(F)(F)F)n3)ccc2n1` [Compound 79, ethyl 6-(5-(trifluoromethyl)-1,2,4-oxadiazol-3-yl)imidazo[1,2-a]pyridine-2-carboxylate], the pest or weed control at 500 ppm is at least 70%.

Regarding `COc1ccc(C(=O)NCc2cn3cc(-c4noc(C(F)(F)F)n4)ccc3n2)cc1` [Compound 82, 4-methoxy-N-((6-(5-(trifluoromethyl)-1,2,4-oxadiazol-3-yl)imidazo[1,2-a]pyridin-2-yl)methyl)benzamide], the pest or weed control at 500 ppm is at least 70%.

Take `O=C(NCc1cn2cc(-c3noc(C(F)(F)F)n3)ccc2n1)c1ccc(Cl)cc1` [Compound 83, 4-chloro-N-((6-(5-(trifluoromethyl)-1,2,4-oxadiazol-3-yl)imidazo[1,2-a]pyridin-2-yl)methyl)benzamide]: the pest or weed control at 500 ppm is at least 70%.

Consider `CCC(=O)NCc1cn2cc(-c3noc(C(F)(F)F)n3)ccc2n1` [Compound 88, N-((6-(5-(trifluoromethyl)-1,2,4-oxadiazol-3-yl)imidazo[1,2-a]pyridin-2-yl)methyl)propionamide], for which the pest or weed control at 500 ppm is at least 70%.

With `O=C(NCc1cn2cc(-c3noc(C(F)(F)F)n3)ccc2n1)c1ccc(F)cc1` [Compound 90, 4-fluoro-N-((6-(5-(trifluoromethyl)-1,2,4-oxadiazol-3-yl)imidazo[1,2-a]pyridin-2-yl)methyl)benzamide], the pest or weed control at 500 ppm was at least 70%.

Consider `O=C(NCc1cn2cc(-c3noc(C(F)(F)F)n3)ccc2n1)c1cccc(F)c1` [Compound 93, 3-fluoro-N-((6-(5-(trifluoromethyl)-1,2,4-oxadiazol-3-yl)imidazo[1,2-a]pyridin-2-yl)methyl)benzamide], for which the pest or weed control at 500 ppm is at least 70%.
